According to US9237744B2, “Preservative solution for cells, tissues and organs containing rare sugar and preservative method thereof” (NATIONAL UNIVERSITY CORPORATION KAGAWA UNIVERSITY, priority 2004, dated 2016):

Experiments:
ICAM-1 mRNA = assay: Kidney preservation in UW solution at 4° C., ICAM-1 mRNA by northern blot; parameters: species or system rat; settings: D-allose 5 mg/ml in UW solution, clearly observed after 12 hours and 24 hours (FIG. 10)
Method: (§1) Object: male rats, 200 g to 280 g Preparations of experiment: A rat is fasted 12 hours before the experiment. After the rat is anesthetized by intraperitoneal administration of nenbutal, the stomach is shaved with an electric razor, cleaned with ether, and cut open. The abdominal aorta upper the renal artery is clamped. The UW solution is adapted to be perfused from the abdominal aorta under the renal artery. Grouping: Control group: UW solution only, D-allose group: D-allose is added to the UW solution at a concentration of 5 mg/ml. Experimental method: In the control group and the D-allose group, the kidney is withdrawn after perfusion of the UW solution in each group, put in the UW solution of each of the control group and the D-allose group, and preserved at 4° C. in pre or for 12, 24, 48 or 72 hours. Estimation: Expression of detrimental factor ICAM-1 and regeneration factor EGF in mRNA was examined by northern blot.

[1] = tested on: Hela, OVCAR-3, HaCaT, HFB and NIH3T3 cells; assay: Survival rate of cells after freeze-preservation at high sugar concentration, trypan blue (Example 2); format: cell-based, human, mouse
Method: (§2) 1. Cells used: Hela (human cervical cancer), OVCAR-3 (human ovarian cancer), HaCaT (human skin keratinocyte), HFB (human fibroblast) and NIH3T3 (mouse fibroblast). Saccharides D-allose and the like were added to culture medium, Cell Banker (commercially available preservative solution) and DMSO at concentrations of 0.2, 0.4, 0.6, 0.8 and 1M. Monosaccharides such as D-glucose, D-fructose, D-mannose and D-galactose which are present in nature in large quantities and D-allose, D-altrose, D-psicose, L-psicose, D-sorbose, L-sorbose, D-tagatose, L-tagatose and L-fructose as rare sugars were used. Further, trehalose as disaccharide was used. The cells frozen with D-allose were freeze-preserved at −80° C. and in liquid nitrogen for 24 hours, 1 week and 4 weeks. 1) Survival rate of cells: The cells were thawed, and the survival rate was estimated by a trypan blue dying method.

rat kidney = settings: pre-administration, cited from earlier work
EGF mRNA = assay: Kidney preservation in UW solution at 4° C., EGF mRNA by northern blot; parameters: species or system rat; settings: D-allose 5 mg/ml in UW solution, in 48 hours and 78 hours (FIG. 11)
Method: as §1, with “and preserved at 4° C. in pre or for 12, 24, 48 or 72 hours.” left out

[2] = tested on: OVCAR-3, HaCaT and HDF cells; assay: Cell survival rate with D-allose combined with DMSO at low concentration (Example 2); format: cell-based, human; settings: 1 or 2% of DMSO with addition of D-allose (FIG. 9)
Method: as §2, with “method. 6) The effect of cell preservation under sub-optimal conditions by reducing the concentration of DMSO to 1, 2 or 3% was comparatively examined. OVCAR-3, HaCaT and HDF cells were used as cells. Regarding the preservation effect with DMSO, it was confirmed that the survival rate was approximately 70% or more with the use of 1 or 2% of DMSO by addition of D-allose (FIG. 9).” for “method.”

[3] = tested on: NIH3T3 (mouse fibroblast); assay: Cell growth after thawing of freeze-preserved cells, MTT assay (Example 1); format: cell-based; settings: same experiment as with HFB
Method: (§3) 1. Cells used: Hela (human cervical cancer), OVCAR-3 (human ovarian cancer), HuH-7 (human liver cancer), HaCaT (human skin keratinocyte), HFB (human fibroblast) and NIH3T3 (mouse fibroblast). Saccharides D-allose and the like were added to culture medium, Cell Banker (commercially available preservative solution) and DMSO at concentrations of 25 mM and 50 mM. Monosaccharides such as D-glucose, D-fructose, D-mannose and D-galactose which are present in nature in large quantities and D-allose, D-psicose, D-altrose, allitol, D-talitol and L-sorbose as rare sugars were used. Further, trehalose as disaccharide was used. The cells were preserved for 24 hours by being frozen at −80° C. 2) Cell growth: One day later, the cells were thawed, and 0.25˜2×10^4 cells/well were spread on 96-well plate with 0.1 mL medium. After a prescribed period of time, the cell growth was measured by MTT assay.

HFB (human fibroblast) = assay: as above; format: cell-based; settings: culture medium plus sugar, in comparison with other cases (FIG. 2)
Method: as §3

CINC-1 = assay: Renal ischemic reperfusion model, CINC-1 protein amount; format: in vivo, rat; settings: 400 mg/kg intravenously 30 minutes before renal ischemia, 45 minutes clamp (FIG. 12)
Method: Object: male rats with a body weight of 200˜250 g Experimental method: After anesthetization of a rat with nenbutal, a renal ischemic model is prepared. Renal ischemic model: After extraction of the right kidney, the left kidney blood vessel is clamped for 45 minutes. 400 mg/kg of the solution is intravenously administered to the D-allose group 30 minutes before the renal ischemia. A raw feed is administered to the control group. Estimation: Change with time of a CINC-1 protein amount and MPO as an index of accumulation of leukocytes after ischemic reperfusion

With O=C[C@H](O)[C@H](O)[C@H](O)[C@H](O)CO [D-allose] the “expression of ICAM-1 mRNA during kidney preservation” value (ICAM-1 mRNA) was “reduced”, the “cell survival rate after thawing in comparison with other rare sugars” value ([1]; 0, 0.2, 0.4, 0.6, 0.8 and 1M, comparison under way, tendency) was “the highest” and the “survival rate of cells” value ([1]; D-allose added to 10% DMSO and Cell Banker, compared with DMSO and Cell Banker) was “the higher the concentration of D-allose, the lower the survival rate of cells”. For the same molecule, the optimum preservation temperature ([1]; D-allose-containing freeze-preservative agent) was −80 °C, the “survival rate of cells with extended time of freeze-preservation” value ([1]; freeze-preservation extended by one month) was “not changed so much” and the “number of cells survived (trypan blue dying)” value ([1]; sugar-containing medium in comparison with medium alone (FIG. 7)) was “large”. For the same molecule, the “survival rate by temperature of freeze-preservation” value ([1]; −80° C. versus liquid nitrogen) was “much higher”, the “activation and floating of neutrophils after ischemic reperfusion” value (rat kidney; rat kidney (WO 03/097820)) was “inhibits” and the “functional disorder of the kidney” value (rat kidney; rat kidney ischemic reperfusion (WO 03/097820)) was “decreases”. The “expression of EGF mRNA during kidney preservation” value (EGF mRNA) was “still maintained”, the survival rate [2] was at least 70% and the “growth rate of cells after thawing” value [3] was “the same results were obtained”. For the same molecule, the “growth rate of cells after thawing” value (HFB (human fibroblast)) was “growth rate was high” and the “CINC-1 protein amount after ischemic reperfusion” value (CINC-1) was “significantly decreased”.
